Measured values: patent US6421455B1, “Method for detecting cancer on skin of humans and mammals and arrangement for performing the method” (Medeikonos AB, priority 1996, dated 2002)

Assays:
[1] = Solubility of ALA in water; format: physicochemical; conditions: ALA in the form of powder
Procedure: (§1) The method according to the invention is carried out in the way that first a water-in-oil emulsion or an oil-in-water emulsion is prepared form a compound called delta amino levulinic acid (ALA) having an ALA concentration of 5-25%. […] This agent which has the formula I is normally produced in the body in the […] and is a building stone for the haemoglobin. [drawing 1]

[2] = system: skin cancer (tumours) on skin; test: Imaging fluorescence spectroscopy of skin after topical ALA application; format: in vivo, human; conditions: exciting light about 0,5 mW/cm^2, exposing time 2 s
Procedure: as §1

solubility in water [1]: easily solved in water
SMILES: NCC(=O)CCC(=O)O [ALA, delta amino levulinic acid]
average fluorescence level within area B (ALA-treated skin without detected tumours) relative to area A (untreated skin, skin auto fluorescence) ([2]; FIG. 1, back of a person): 1,9 ×
fluorescence intensity of white-contoured areas (tumours, areas 1-4) relative to skin auto fluorescence ([2]; FIG. 1, back of a person): 2,75 ×
average fluorescence level in area B (ALA-treated skin without detected tumours) relative to area A (untreated skin, skin auto fluorescence) ([2]; FIG. 2, breast of a person): 2,0 ×
fluorescence intensity of white-contoured areas (tumour, area 7) relative to skin auto fluorescence ([2]; FIG. 2, breast of a person): > 2,75 ×
